In patent US8207131B2, “Peptide” (Megmilk Snow Brand Co., Ltd., priority 2006, dated 2012):
No end group written: not given here.

Experiments:
[1] = antioxidative activity by linoleic acid-β-carotene degradation method; assay type: biochemical
Procedure: The antioxidative activity of the peptide fractionated in Example 1 was measured utilizing the β-carotene degradation effect of an oxide of linoleic acid. Specifically, a 300 ml Erlenmeyer flask was charged with 0.5 ml of a β-carotene solution (1 mg/ml chloroform), 0.2 ml of a linoleic acid solution (100 mg/ml chloroform), and 1.0 ml of a Tween 40 solution (200 mg/ml chloroform). After completely removing chloroform using nitrogen gas, 100 ml of distilled water was added to dissolve the components. 9.0 ml of a 0.2 M phosphate buffer (pH: 7.0) was then added to the solution to prepare a linoleic acid-β-carotene solution. 0.18 ml of the linoleic acid-β-carotene solution was added to a […] microwell plate to which 0.02 ml of the peptide fraction was provided. The absorbance S0 at 490 nm was measured immediately after the addition. When preparing the linoleic acid-β-carotene solution, the amount of the β-carotene solution was appropriately adjusted so that the absorbance S0 was about 1.2 (1.1 to 1.3). The microwell plate was placed in a thermostat bath at 50° C. immediately after measuring the absorbance S0, and the peptide fraction was incubated for 30 minutes. The absorbance S30 was measured immediately after incubation. A decrease (ΔS=S0−S30) in absorbance at 490 nm over 30 minutes was then calculated. 70% ethanol was used as a blank instead of the sample and subjected to the above operation. Specifically, the absorbance B0 immediately after adding the linoleic acid-β-carotene solution and the absorbance B30 after being kept at 50° C. for 30 minutes were measured, and a decrease (ΔB=B0−B30) in absorbance at 490 nm over 30 minutes was calculated. The antioxidative activity (antioxidation rate (%)) was determined by substituting the resulting values in the following expression. Antioxidation rate (%)=[ΔB−ΔS]/(ΔB)×100
As a positive control, carnosine (β-Ala-L-His; manufactured by Peptide Institute, Inc.) (muscle-derived antioxidative peptide) prepared to a concentration of 0.01 μg/ml, 0.1 μg/ml, or 1 μg/ml was used.
The antioxidative activity of the peptide obtained in Example 2 was measured in the same manner as in Test Example 1. As a positive control, carnosine (β-Ala-L-His; manufactured by Peptide Institute, Inc.) (muscle-derived antioxidative peptide) and catechin (manufactured by Wako Pure Chemical Industries, Ltd.) (1 μm, 10 μm, or 100 μm) were used. Table 2 and FIG. 3 show the evaluation results for the antioxidative activity of the synthetic peptide.
The antioxidative activities of the two peptides (i.e., tryptic digests) obtained in Examples 3 and the tryptic digest before fractionation were measured using a carotene degradation method in the same manner as in Test Example 2. The peptide concentration was determined by dissolving each peptide in 500 μl of pure water and measuring the peptide concentration using a Micro BCA Protein assay kit (manufactured by Pierce). As a positive control, carnosine (β-Ala-L-His; manufactured by Peptide Institute, Inc.) and catechin (manufactured by Wako Pure Chemical Industries, Ltd.) were used in the same manner as in Test Example 2. A diluted solution (1 ng/ml, 10 ng/ml, and 100 ng/ml) was prepared for each fragment, and the antioxidative activity was evaluated using the β-carotene degradation method.

[2] = tested on: rat primary-cultured visceral fat cells (VAC01); assay: peptide adipocyte administration experiment; assay type: cell-based
Procedure: Experiments were conducted in which the peptide isolated from the cheese in Example 1 was administered to primary-cultured visceral fat cells.
The experiments were conducted using rat primary-cultured visceral fat cells (VAC01, manufactured by Cell Garage Co., Ltd.) and a visceral fat cytodifferentiation medium (manufactured by Cell Garage Co., Ltd.). Cells preserved in a frozen state in accordance with the protocol provided by Cell Garage Co., Ltd. were melted and disseminated in a 24-well plate (zeroth day). A culture medium (peptide concentration: 100 μM, 50 μM, 10 μM, or 0 μM) in which the synthetic peptide was dissolved was added to the 24-well plate on the second day, fifth day, and seventh day, and the synthetic peptide was cultured. The culture supernatant liquid was collected on the fifth day, seventh day, and eighth day to measure the adiponectin level. The cells were collected on the eighth day. The enzyme activity of glycerol-3-phosphate dehydrogenase (GPDH) in the cells, the DNA content of each well, and the intracellular fat accumulation level were measured. GPDH is an enzyme that functions when triglyceride is synthesized from glucose to produce mature fat cells. In this example, preadipocytes were differentiated, and the effect of administration of the peptide according to the present invention was observed.
The DNA content was determined using a DNA quantization kit (manufactured by Cell Garage Co., Ltd.).
The glycerol-3-phosphate dehydrogenase (GPDH) enzyme activity in the cells was measured using a GPDH activity measurement kit (manufactured by Cell Garage Co., Ltd.) in accordance with the protocol provided by Cell Garage Co., Ltd. The measurement results were standardized by the content of DNA extracted from each well.
The adiponectin level in the culture supernatant liquid was measured using an adiponectin ELISA kit (manufactured by Otsuka Pharmaceutical Co., Ltd.). The measurement results were standardized by the content of DNA extracted from each well.
The intracellular fat accumulation was determined by fat staining with oil red O and absorbance measurement using a fat staining kit (manufactured by Cell Garage Co., Ltd.).

[3] = sample concentration 0.01 μg/ml, Test Example 1
[4] = sample concentration 0.1 μg/ml, Test Example 1
[5] = sample concentration 1 μg/ml, Test Example 1
[6] = sample concentration 1 μg/ml, Test Example 2
[7] = sample concentration 10 μg/ml, Test Example 2
[8] = sample concentration 100 μg/ml, Test Example 2
[9] = Test Example 3, tryptic digest peptides, 1, 10, 100 ng/ml, FIG. 5

Row | Compound | Antioxidative activity (%) [1, 3] | Antioxidative activity (%) [1, 4] | Antioxidative activity (%) [1, 5] | Antioxidative activity (%) [1, 6] | Antioxidative activity (%) [1, 7] | Antioxidative activity (%) [1, 8] | antioxidative activity (in words) [1, 9] | also measured
1 | NCCC(=O)N[C@@H](Cc1cnc[nH]1)C(=O)O [Carnosine, β-Ala-L-His, reference compound] | 32.9% | 57.8% | 78.3% | 7.07% | 21.2% | 48.41% |  | 
2 | HPIKHQGLPQ | 13.0% | 41.0% | 64.6% | 32.86% | 61.13% | 63.6% |  | antioxidative activity (in words) ([1]; Test Example 1, peptide purified from Gouda cheese): had antioxidative activity (radical scavenger activity); antioxidative activity (in words) ([1]; Test Example 2, synthetic peptide, FIG. 3): strong antioxidative activity; production of adiponectin (per unit DNA content) vs cells without peptide ([2]; culture supernatant, seventh day, 10, 50, 100 μM, FIG. 6): significantly more adiponectin; cell DNA content of each well vs group without peptide ([2]; eighth day, Student t-test): a significant difference in cell DNA content was not observed; fat accumulation (oil red O staining) vs cells without peptide ([2]; eighth day, Student t-test, FIG. 7): a significant difference in fat accumulation was not observed; GPDH activity (per unit DNA content) vs group without peptide ([2]; peptide 100 μM, eighth day): A significant difference was not observed; fat accumulation (oil red O staining) ([2]; peptide 100 μM, eighth day): decreased to only a small extent; GPDH activity (per unit DNA content) vs group without peptide ([2]; peptide 10 or 50 μM, eighth day): significantly higher
3 | HQGLPQ |  |  |  |  |  |  | strong antioxidative activity | 
4 | His-Pro-Ile-Lys (HPIK; Bovine) |  |  |  |  |  |  | strong antioxidative activity | 
5 | catechin [reference compound] |  |  |  | 52.65% | 84.45% | 97.17% |  | 
